# Experiments:
# Experiment in all cases: Field trial, post-emergence weed control in chicory
# Assay type in all cases: in vivo
# [1] = tested on: Matricaria recutita (wild chamomile), MATCH; conditions: 2-3 trials (number of trials in parentheses in cell), 30 days after last application
# Description: (§1) Field trials were conducted in Northern France and Belgium, both of which are major areas for root chicory and whitloof chicory production. Trials were conducted in accordance with EPPO standard PP 1/99(3) entitled “Weeds in Roots Vegetables,” PP 1/152(4) entitled “Design and Analysis of Efficacy Evaluation Trials,” PP 1/135(3) entitled “Phytotoxic Assessment,” and PP 1/181(4) entitled “Conduct and Reporting of Efficacy Evaluation Trials Including Good Experimental Practice,” all of which are incorporated herein by reference in their entirety.
# (§2) Application to all field trials was made using a small plot precision sprayer operating at between 160-400 kilopascals (kPa) pressure, delivering a spray volume of 150-400 liters per hectare (L/ha). Nozzles were of a flat fan type. Trial plot size ranged from 4.5×2.5 square meters (m^2) to 10.5×2.5 m^2. Plots were replicated 3 or 4 times and were arranged in a randomized block design within each trial. All trials received a pre-emergence application of BONALAN® at 6 L/ha (benfluralin; 180 grams active ingredient per liter (g ai/L); commercially available from Dow AgroSciences LLC) with incorporation to prevent the emergence of grasses which could complicate the assessment of broadleaf control.
# (§3) In whitloof chicory (Cichorium intybus), treatments were evaluated which included either two or three post-emergence applications of herbicide. Multiple applications of herbicide were evaluated for their ability to control weed emergence during the extended period of time required for chicory cultivation. Trials included different combinations of application rate and application timing. Broadcast applications were made from May to July, covering a range of possible application timings. Penoxulam was applied at a maximum total rate of 15 g/ha per season, applied in two or three applications with a minimum of seven days between applications. Treatment with penoxsulam involved application of either BOA® or VIPER® (2.14% weight per weight (w/w) oil dispersions of penoxsulam commercially available from Dow AgroSciences LLC). Trials were also conducted using another ALS mode-of-action herbicide (i.e., the sulfonylurea triflusulfuron-methyl). Triflusulfuron-methyl was applied at a maximum total rate of 30 g/ha per season, applied in two or three applications with a minimum of seven days between applications. Treatment with triflusulfuron-methyl involved application of SAFARI® (triflusulfuron-methyl; commercially available from DuPont Crop Protection).
# (§4) Prior to treatment application, assessments of weed populations (number of plants per m^2) were carried out using a quadrant square and an appropriate number of sampling points.
# (§5) 1) Visual rating in percent of the overall volume reduction of vegetation for each species compared to the nearest untreated plot (Plant/Control/% visual; 0%=no control; 100%=all weeds dead). Assessments of this type were performed by Dow AgroSciences LLC in France.
# (§6) Assessments of weed control were carried out at 14, 28, 56 and 84 days or longer after each application timing (DAAA=days after application A, DAAB=days after application B or DAAC=days after application C).
# [2] = tested on: Galinsoga ciliata (shaggy soldier) / Galinsoga parviflora (potato weed), GASCI-GASPA; conditions: 4 trials, 30 days after last application
# Description: as §1, §2, §3, §4, §5, §6
# [3] = tested on: Sonchus sp. (sow-thistle), SONSS; conditions: 1 trial, 30 days after last application
# Description: as §1, §2, §3, §4, §5, §6
# [4] = tested on: Solanum nigrum (black nightshade), SQLNI; conditions: 2 trials, 30 days after last application
# Description: as §1, §2, §3, §4, §5, §6
# [5] = tested on: Artemisia biennis (biennial wormwood), ARTRI; conditions: 3 trials, 30 days after last application
# Description: as §1, §2, §3, §4, §5, §6
# [6] = tested on: Capsella bursa-pastoris (shepherd's purse), CAPBP; conditions: 2 trials, 30 days after last application
# Description: as §1, §2, §3, §4, §5, §6
# [7] = tested on: Senecio vulgaris (common groundsel), SENVU; conditions: 1 trial, 30 days after last application
# Description: as §1, §2, §3, §4, §5, §6
# [8] = tested on: Coronopus didymus (lesser swinecress), COPDI; conditions: 2 trials, 30 days after last application
# Description: as §1, §2, §3, §4, §5, §6
# [9] = 3 applications 3.73/3.73/3.73 g ai/ha
structure (smiles),measurement,setting,value
COc1cnc(OC)n2nc(NS(=O)(=O)c3c(OCC(F)F)cccc3C(F)(F)F)nc12 [Penoxsulam],% Visual Weed Control,[1]; 2 applications 5.6/5.6 g ai/ha,93 (2) %
same,% Visual Weed Control,[1]; 2 applications 7.5/7.5 g ai/ha,93.9 (3) %
same,% Visual Weed Control,[1]; [9],91.4 (2) %
same,% Visual Weed Control,[1]; 3 applications 5/5/5 g ai/ha,97.2 (3) %
same,% Visual Weed Control,[2]; 2 applications 5.6/5.6 g ai/ha,87.3%
same,% Visual Weed Control,[2]; 2 applications 7.5/7.5 g ai/ha,87.9%
same,% Visual Weed Control,[2]; [9],95.9%
same,% Visual Weed Control,[2]; 3 applications 5/5/5 g ai/ha,96.7%
same,% Visual Weed Control,[3]; 2 applications 5.6/5.6 g ai/ha,86%
same,% Visual Weed Control,[3]; 2 applications 7.5/7.5 g ai/ha,86%
same,% Visual Weed Control,[3]; [9],86%
same,% Visual Weed Control,[3]; 3 applications 5/5/5 g ai/ha,86%
same,% Visual Weed Control,[4]; 2 applications 5.6/5.6 g ai/ha,66.5%
same,% Visual Weed Control,[4]; 2 applications 7.5/7.5 g ai/ha,100%
same,% Visual Weed Control,[4]; [9],83.4%
same,% Visual Weed Control,[4]; 3 applications 5/5/5 g ai/ha,83.4%
same,% Visual Weed Control,[5]; 2 applications 5.6/5.6 g ai/ha,64.4%
same,% Visual Weed Control,[5]; 2 applications 7.5/7.5 g ai/ha,68.3%
same,% Visual Weed Control,[5]; [9],68.8%
same,% Visual Weed Control,[5]; 3 applications 5/5/5 g ai/ha,76.4%
same,% Visual Weed Control,[6]; 2 applications 5.6/5.6 g ai/ha,100%
same,% Visual Weed Control,[6]; 2 applications 7.5/7.5 g ai/ha,100%
same,% Visual Weed Control,[6]; [9],100%
same,% Visual Weed Control,[6]; 3 applications 5/5/5 g ai/ha,100%
same,% Visual Weed Control,[7]; 2 applications 5.6/5.6 g ai/ha,50%
same,% Visual Weed Control,[7]; 2 applications 7.5/7.5 g ai/ha,100%
same,% Visual Weed Control,[7]; [9],60%
same,% Visual Weed Control,[7]; 3 applications 5/5/5 g ai/ha,100%
same,% Visual Weed Control,[8]; 2 applications 5.6/5.6 g ai/ha,92.4%
same,% Visual Weed Control,[8]; 2 applications 7.5/7.5 g ai/ha,96.25%
same,% Visual Weed Control,[8]; [9],90.15%
same,% Visual Weed Control,[8]; 3 applications 5/5/5 g ai/ha,93.25%

# Reference: patent US9226506B2, “Methods of weed control in chicory” (Dow AgroSciences LLC, priority 2013, dated 2016)
